Source: patent publication US20220409582A1, “COMBINATION THERAPIES COMPRISING PANOBINOSTAT FOR THE TREATMENT OF CHOLANGIOCARCINOMA” (SEALD AS, priority 2019, published 2022)
Where two headings read alike, the source gives them in different places.

Tests used:
CC-SW-1 cell line = experiment: Cell TitreGlo cell viability, CC-SW-1 cholangiocarcinoma cells; format: cell-based, human; conditions: for IC50: Homo sapiens
Experimental: (§1) Various cholangiocarcinoma (CCA) cell lines were used for this drug screening.
(§2) For panobinostat as single substance treatment seven cholangiocarcinoma cell lines were used. Panobinostat was then tested in combination with 23 other drugs on four cholangiocarcinoma cell lines. A single concentration of the combination drug was added based on a previously determined IC20 value for the combination drug tested alone on each of the four cell lines.
(§3) The viability data for each plate were normalized to the average of eight replicates of DMSO at 0.1% and seven replicates of Benzethonium Chloride (BzCl) at 100 uM. BzCl serves as a cell killing control that accounts for background signal from dead cells in the CTG luminescence assay. Raw luminescence data were normalized according to the following equation: […]
(§4) The normalized data for each dose response curve were then fit using the function drm from the R package drc. This function uses a four parameter log-logistic curve to fit the dose response data, resulting in values for curve minimum, maximum, IC50, and slope. In the case where a log-logistic curve could not be fit to the data, a logistic curve was used instead.

HuCC-T1 cell line = experiment: Cell TitreGlo cell viability, HuCC-T1 cholangiocarcinoma cells; format: cell-based, human; conditions: for IC50: Homo sapiens, HuCCT-1
Experimental: as §1, §2, §3, §4

EGI-1 cell line = experiment: Cell TitreGlo cell viability, EGI-1 cholangiocarcinoma cells; format: cell-based, human
Experimental: as §1, §2, §3, §4

CC-LP-1 cell line = experiment: Cell TitreGlo cell viability, CC-LP-1 cholangiocarcinoma cells; format: cell-based; conditions: Homo sapiens, single substance treatment, cell viability 48 h post drug addition
Experimental: as §1
(§5) For panobinostat as single substance treatment seven cholangiocarcinoma cell lines were used. Panobinostat was then tested in combination with 23 other drugs on four cholangiocarcinoma cell lines. A single concentration of the combination drug was added based on a previously determined IC20 value for the combination drug tested alone on each of the four cell lines. The cell line TFK-1 was insensitive to some tested drugs.

TFK-1 cell line = experiment: Cell TitreGlo cell viability, TFK-1 cholangiocarcinoma cells; format: cell-based, human
Experimental: as §1, §2, §3, §4

KMBC cell line = experiment: Cell TitreGlo cell viability, KMBC cholangiocarcinoma cells; format: cell-based; conditions: single substance treatment, cell viability 48 h post drug addition
Experimental: as §1, §5

KMCH-1 cell line = experiment: Cell TitreGlo cell viability, KMCH-1 combined cholangio- and hepatocarcinoma cells; format: cell-based; conditions: single substance treatment, cell viability 48 h post drug addition
Experimental: as §1, §5

[1] = test system: normal cholangiocytes, cell line H69 (CVCL_8121); conditions: read-out: H69 cell line Mono, panobinostat alone
Source text: The effects of various cytotoxic agents on the toxicity of panobinostat in normal cholangiocytes was examined. The cell line H69 (CVCL_8121) was used in experimental procedures described above to determine the IC50 value for panobinostat (the primary drug) on these cells when used in combination with cytotoxic agents (secondary drug) added to the cells at their IC20 concentrations.
The larger difference the more toxic the combination.

IC50 (CC-SW-1 cell line; panobinostat alone, read-out: CC-SW-1 cell line Mono): 18.4 nM
IC50 (CC-SW-1 cell line; single substance treatment, CC-SW-1, cell viability 48 h post drug addition, read-out: IC50): 12 nM
IC50 (HuCC-T1 cell line; panobinostat alone, read-out: HuCCT-1 cell line Mono): 42.4 nM
IC50 (HuCC-T1 cell line; single substance treatment, HuCC-T1, cell viability 48 h post drug addition, read-out: IC50): 90 nM
IC50 (EGI-1 cell line; Homo sapiens, EGI-1, panobinostat alone, read-out: EGI-1 cell line Mono): 62.9 nM
IC50 (EGI-1 cell line; single substance treatment, EGI-1, cell viability 48 h post drug addition, listed as panobinostat, read-out: IC50): 99 nM
IC50 (EGI-1 cell line; single substance treatment, EGI-1, cell viability 48 h post drug addition, read-out: IC50): 36 nM
IC50 (CC-LP-1 cell line): 81 nM
IC50 (TFK-1 cell line; Homo sapiens, 48 h, single substance treatment, TFK-1, cell viability 48 h post drug addition, read-out: IC50): 70 nM
IC50 (TFK-1 cell line; Homo sapiens, panobinostat alone, read-out: TFK-1 cell line Mono): 51.8 nM
IC50 (TFK-1 cell line; single substance treatment, TFK-1, cell viability 48 h post drug addition, read-out: IC50): 95 nM
IC50 (KMBC cell line): 88 nM
IC50 (KMCH-1 cell line): 99 nM
Compound: Cc1[nH]c2ccccc2c1CCNCc1ccc(/C=C/C(=O)NO)cc1 [Panobinostat, (E)-N-hydroxy-3-[4-[[2-(2-methyl-1H-indol-3-yl)ethylamino]methyl]phenyl]prop-2-enamide]
Therapeutic index Mono (CC-SW-1 cell line; IC50 in H69 normal cells / IC50 in CC-SW-1, panobinostat alone): 3.1
Therapeutic index Mono (HuCC-T1 cell line; IC50 in H69 normal cells / IC50 in HuCCT-1, panobinostat alone): 0.9
Therapeutic index Mono (EGI-1 cell line; IC50 in H69 normal cells / IC50 in EGI-1, panobinostat alone): 0.9
Therapeutic index Mono (TFK-1 cell line; IC50 in H69 normal cells / IC50 in TFK-1, panobinostat alone): 1.1
IC50 [1]: 56.8 nM
